One test relates to platelet aggregation. The note with it: combined with LMWH; 0.5 IU/ml thrombin; cited from earlier work.
Test [1] concerns TF-induced clot formation/strength. The experiment in a line: Tissue factor-triggered thrombelastography (TEG), clot strength. In kind it is cell-based. As to conditions: GPIIb/IIIa antagonists added to TEG cup with CaCl2 and TF; mimics platelet removal from whole blood. As to the method:
Thrombelastography: Clot formation was monitored at 37° C. in an oscillating plastic cylindrical cuvette (“cup”) and a coaxially suspended stationary piston (“pin”) with a 1 mm clearance between the surfaces, using a computerized Thrombelastograph (CTEG Model 3000, Haemoscope, Skokie, Ill.) as described by Mousa et al., Athero Thromb Vasc Biol 2000. The cup oscillates 4°45′ ( 1/12 radian) in either direction every 4.5 seconds, with a 1 second mid-cycle stationary period; resulting in a frequency of 0.1 Hz and a maximal shear rate of 0.1 per second. The pin is suspended by a torsion wire that acts as a torque transducer. […] The torque experienced by the pin (relative to the cup's oscillation) is plotted as a function of time (Essel et al., J Cardiovascular Anesth., 7:410-415, 1993; Mousa et al., Arteriosclerosis Thromb Vasc Biol., 20:1162-1167, 2000). The amplitude on the TEG tracing is a measure of the rigidity of the clot; the peak strength or the shear elastic modulus attained by the clot, G, is a function of clot rigidity and can be calculated from the maximal amplitude (MA) of the TEG (Mousa et al., Arteriosclerosis Thromb Vasc Biol., 20:1162-1167, 2000).
Platelet Contribution to Clot Strength: To assess the effect of the TF modification on peak clot strength (G) was measured with and without the addition of TF in paired samples of WB and PRP. To document the contribution of activated platelets to the elastic modulus of fibrin clots, the effect of platelet number was measured by serially diluting PRP with PPP. The platelet count of each dilution was measured before performing TEG. Tissue factor-triggered TEG was performed with increasing concentrations added to the TEG cups. […] The Thrombelastograph maximum amplitude (MA) for platelets MA (PLT)) was calculated by subtracting the MA from a platelet-poor plasma (PPP) sample MA (PPP) determined in one TEG well from that of whole blood MA (WB) run simultaneously in the second TEG well.

For a further test, the system named is thrombosis. As to conditions: U.S. Pat. No. 6,103,705, cited from earlier work.

With `CCCCOC(=O)N[C@@H](CNC(=O)C[C@H]1CC(c2ccc(C(=N)N)cc2)=NO1)C(=O)OC` [roxifiban], in the test with platelet aggregation, the “effect of sub-therapeutic concentrations on the dose-response relationship of LMWH” value is recorded as “significant enhancement (synergy) of anti-thrombotic efficacy”. Besides, in test [1], the “maximal blockade (clot strength)” value stood at 80%. For `CCCCOC(=O)N[C@@H](CNC(=O)C[C@H]1CC(c2ccc(C(=N)N)cc2)=NO1)C(=O)O` [XV459], the “maximal blockade (clot strength)” value in test [1] is 80%. In the case of `CCCCS(=O)(=O)N[C@@H](Cc1ccc(OCCCCC2CCNCC2)cc1)C(=O)O` [BSPBPA], the “anti-thrombotic effect on co-administration with the LMWH enoxaparin” value in the test with thrombosis (intravenous, sub-effective or reduced levels) is on record as “enhanced anti-thrombotic effect”. In addition, the “anti-thrombotic effect on co-administration with standard heparin” value with thrombosis (same reduced level of the GPIIb/IIIa antagonist) was “This was not the case”.

B1: Abciximab: monoclonal antibody for GPIIb/IIIa (c7E3 Fab) (antibody, chains of the INN, looked up, V domains shown)
VH: EVQLQQSGTVLARPGASVKMSCEASGYTFTNYWMHWVKQRPGQGLEWIGAIYPGNSDTSYIQKFKGKAKLTAVTSTTSVYMELSSLTNEDSAVYYCTLYDGYYVFAYWGQGTLVTVSA
VL: EIVLTQSPVTLSVTPGDSVSLSCRASRDISNNLHWFQQTSHESPRLLIKYASQSMSGIPSRFSGSGSGTDFTLSINSVETEDFGMYFCQQTNSWPYTFGGGTKLEIK
modifications: Fab
Take B1: the “effect of sub-therapeutic concentrations on the dose-response relationship of LMWH” value in the test with platelet aggregation is recorded as “significant enhancement (synergy) of anti-thrombotic efficacy”. Besides, the “maximal blockade (clot strength)” value in test [1] was determined as 80%.

The values are drawn from patent US20030199457A1, “Prevention and treatment of thromboembolic disorders associated with arterial & venous thrombosis” (priority 2002, published 2003).
